In PMC4922569, “Antifibrotic Effects of the Dual CCR2/CCR5 Antagonist Cenicriviroc in Animal Models of Liver and Kidney Fibrosis” (PLoS ONE, 2016):

Key:
[1] = system: CCL2-mediated chemotaxis of activated murine macrophages (F4/80+/CD11b+); experiment: Ex vivo CCL2-induced chemotaxis of activated mouse macrophages (Transwell); format: cell-based; settings: CCL2-stimulated cells (1 nM CCL2), no CVC, 2 hours
Protocol: Mouse monocyte migration in response to CVC treatment was assessed ex vivo in triplicate. TG was injected intraperitoneally into male C57BL/6 mice (n = 3; 8–10 weeks of age; Jackson Laboratory, USA) and activated macrophages were collected 48 hours later by peritoneal lavage. Chemotaxis was assayed using a Transwell® Chamber (Costar, USA) with a 5 μm-pore size polycarbonate filter, as previously described. Briefly, cells were incubated for 2 hours in the presence of 1 nM CCL2 and/or 1 μM CVC (dissolved in dimethyl sulfoxide with 0.5% acetic acid and diluted 1:1000 with serum-free Roswell Park Memorial Institute-1640 medium and 0.5% bovine serum albumin). Cells were harvested from the lower compartment and analyzed by flow cytometry to enumerate F4/80^+CD11b^+ macrophages using a 3-laser BD FACSCanto™ (BD Biosciences, Canada). Results were analyzed using FlowJo software (Tree Star Inc., USA).
(§1) In the peritonitis mouse model, one-way analysis of variance with post-hoc Dunnett’s test was performed, using GraphPad Prism® (GraphPad Software, Inc., USA), on differential cell counts obtained from lavage in treatment groups versus the vehicle-control group. For the ex vivo migration of mouse monocytes, statistical significance was determined by a Student’s t test.

[2] = system: monocyte/macrophage recruitment; experiment: Thioglycollate (TG)-induced mouse model of peritonitis: peritoneal lavage monocyte/macrophage counts; format: in vivo; settings: dexamethasone 1 mg/kg QD PO Days 1-5; 48 h post-TG
Protocol: A murine thioglycollate (TG)-induced model of peritonitis, where acute inflammation induced by intraperitoneal (IP) injection of TG results in a rapid increase in monocyte/macrophage migration into the peritoneal cavity, was employed to assess the effects of CVC on cell recruitment in vivo. The protocol was approved by the IACUC of Charles River Laboratories Preclinical Services, Montreal (PCS-MTL). The care and use of animals was conducted in accordance with the guidelines of the US National Research Council and the Canadian Council on Animal Care.
Male C57BL/6 mice (n = 44; 8–10 weeks of age; Charles River Laboratories, Canada) were allocated to receive treatments via oral gavage (PO) on Days 1–5 in the following groups: non-disease control, vehicle control twice daily (BID), CVC 5 mg/kg/day (CVC5) BID, CVC 20 mg/kg/day (CVC20) BID, CVC 100 mg/kg/day (CVC100) BID, CVC20 QD, and positive control dexamethasone (corticosteroid known to reduce inflammation in a variety of animal models) 1 mg/kg QD (S1 Table). On Day 4, peritonitis was induced via IP injection of TG 3.85% (1 mL/animal) 2 hours post-dose in all groups except non-disease controls. Study endpoints included: peritoneal lavage cell counts and pharmacokinetic (PK) evaluation. Animals were sacrificed 48 hours post-TG injection by isoflurane inhalation, and peritoneal lavage and blood samples (0.7 mL) were collected. Differential cell counts were assessed in peritoneal lavage samples using an Advia® Hematology System (Siemens Healthcare Diagnostics, USA) with multispecies software and an analysis software designed for mouse peritoneal fluid on Advia® 120 (LabThruPut, USA). A 0.3 mL aliquot of the blood sample was processed to plasma for PK analysis.
as §1

Compound | Average fold change in migrating cells (±SD) compared to untreated and unstimulated cells [1] [fold] | Decrease in peritoneal lavage monocyte/macrophage counts compared to vehicle control [2] [%]
CCL2: C-C chemokine ligand type 2, chemotaxis stimulus for activated macrophages [reference compound] | 4.6±0.9 | –
C[C@@H]1C[C@H]2[C@@H]3CCC4=CC(=O)C=C[C@]4(C)[C@@]3(F)[C@@H](O)C[C@]2(C)[C@@]1(O)C(=O)CO [dexamethasone, reference compound] | – | 38.1
